# Data: US4738971A, “N-aryl-1,2-dihydro-4-substituted-1-alkyl-2-oxo-quinoline-3-carboxamides” (priority 1981, dated 1988)
# Test system: delayed hypersensitivity reaction (pertussis vaccine pleurisy)
# Test: pertussis vaccine pleurisy test in rats
# Format: in vivo, rat (male Sprague-Dawley)
# Conditions: 10 mg/kg p.o.
# Excerpt: A useful test for the evaluation of the effect of chemical compounds on the immune system is the pertussis vaccine pleurisy test in rats. Compounds which enhance the response in this delayed hypersensitivity reaction are considered to stimulate cell-mediated immunity (4).
# This example illustrates the effect of the compounds of the general formula I in the pertussis vaccine pleurisy test.
# Pertussis vaccine pleurisy is a useful test for the evaluation of the effect of chemical compounds on the immune system. Compounds which enhance the response in this delayed hypersensitivity reaction are considered to stimulate cell-mediated immunity.
# A modification of a method described in (4) was used. Male Sprague-Dawley rats weighing 250-275 g were used. At least ten animals were used in each group.
# Equal volumes of Freund's incomplete adjuvant and a suspension of heat killed Bordetella pertussis organisms were mixed. To sensitize animals, day 0, 0.2 ml of a mixture containing 0.036×10^10 organisms/ml was injected into the dorsal surface of one hind paw and one forepaw.
# The animals were challenged on day 12 with 0.1 ml of a mixture containing 0.25×10^10 organisms/ml that was injected intrapleurally. 48 hours after challenge, day 14, the volume of the exudate in the pleural cavity was measured.
# The substances suspended in aqueous methocel solution 10 ml/kg were given intragastrically once daily from day 10 to day 13. The control groups were given methocel solution 10 ml/kg.
# The effect of the substances was assessed by the exudate volume expressed in percent after comparison with the control groups.
row,SMILES,significant enhancing effect in the pertussis vaccine pleurisy test
1,"Cn1c(=O)c(C(=O)Nc2ccc(O)cc2)c(O)c2ccccc21 [1:13, N-/4-hydroxyphenyl/-1,2-dihydro-4-hydroxy-1-methyl-2-oxo-quinoline-3-carboxamide]",significant enhancing effect
2,"CN(C(=O)c1c(N)c2ccccc2n(C)c1=O)c1ccccc1 [10:5, N-methyl-N-phenyl-4-amino-1,2-dihydro-1-methyl-2-oxo-quinoline-3-carboxamide]",significant enhancing effect
3,"CNc1c(C(=O)N(C)c2ccccc2)c(=O)n(C)c2ccccc12 [10:6, N-methyl-N-phenyl-1,2-dihydro-1-methyl-4-methylamino-2-oxo-quinoline-3-carboxamide]",significant enhancing effect
4,"COc1ccc(N(C)C(=O)c2c(N)c3ccccc3n(C)c2=O)cc1 [10:12, N-(4-methoxyphenyl)-N-methyl-4-amino-1,2-dihydro-1-methyl-2-oxo-quinoline-2-carboxamide]",significant enhancing effect
5,"CN(C(=O)c1c(N)c2ccccc2n(C)c1=O)c1ccc(Cl)cc1 [10:13, N-(4-chlorophenyl)-N-methyl-4-amino-1,2-dihydro-1-methyl-2-oxo-quinoline-3-carboxamide]",significant enhancing effect
6,"CN(C(=O)c1c(N)c2ccccc2n(C)c1=O)c1nccs1 [10:17, N-methyl-N-(2-thiazolyl)-4-amino-1,2-dihydro-1-methyl-2-oxo-quinoline-3-carboxamide]",significant enhancing effect
7,"Nc1c(C(=O)Nc2ccccc2)c(=O)n2c3c(cccc13)CC2 [10:20, N-phenyl-4-amino-1,2-dihydro-1,8-ethylene-2-oxo-quinoline-3-carboxamide]",significant enhancing effect
8,"CN(C(=O)c1c(O)c2cccc3c2n(c1=O)CCC3)c1ccccc1 [19:1, N-methyl-N-phenyl-1,2-dihydro-4-hydroxy-2-oxo-1,8-trimethylene-quinoline-3-carboxamide]",significant enhancing effect
9,"CN(C(=O)c1c(O)c2cccc3c2n(c1=O)CCC3)c1ccc(F)cc1 [19:2, N-(4-fluorophenyl)-N-methyl-1,2-dihydro-hydroxy-2-oxo-1,8-trimethylene-quinoline-3-carboxamide]",significant enhancing effect
10,"C=CCn1c(=O)c(C(=O)N(C)c2ccccc2)c(O)c2ccccc21 [20:1, N-methyl-N-phenyl-1,2-dihydro-1-allyl-4-hydroxy-2-oxo-quinoline-3-carboxamide]",significant enhancing effect
11,"CN(C(=O)c1c(O)c2ccc(Cl)cc2n(C)c1=O)c1ccccc1 [20:2, N-methyl-N-phenyl-7-chloro-1,2-dihydro-4-hydroxy-1-methyl-2-oxo-quinoline-3-carboxamide]",significant enhancing effect
12,"CN(C)c1ccc2c(c1)c(O)c(C(=O)N(C)c1ccccc1)c(=O)n2C [20:3, N-methyl-N-phenyl-1,2-dihydro-6-dimethylamino-4-hydroxy-1-methyl-2-oxo-quinoline-3-carboxamide]",significant enhancing effect
13,"COc1ccc2c(c1)c(O)c(C(=O)N(C)c1ccc(Cl)cc1)c(=O)n2C [20:4, N-(4-chloro-phenyl)-N-methyl-1,2-dihydro-4-hydroxy-6-methoxy-1-methyl-2-oxo-quinoline-3-carboxamide]",significant enhancing effect
14,"CCN(CC)c1ccc(N(C)C(=O)c2c(O)c3ccccc3n(C)c2=O)cc1 [20:20, N-methyl-N-/4-diethylaminophenyl/-1,2-dihydro-4-hydroxy-1-methyl-2-oxo-quinoline-3-carboxamide]",significant enhancing effect
15,"CN(C(=O)c1c(O)c2ccccc2n(C)c1=O)c1ccc(N2CCCC2)cc1 [20:21, N-methyl-N-/4-pyrrolidinophenyl/-1,2-dihydro-4-hydroxy-1-methyl-2-oxo-quinoline-3-carboxamide]",significant enhancing effect
16,"COCCN(C(=O)c1c(O)c2ccccc2n(C)c1=O)c1cnccn1 [20:54, N-(2-methoxy-ethyl)-N-pyrazinyl-1,2-dihydro-4-hydroxy-1-methyl-2-oxo-quinoline-3-carboxamide]",significant enhancing effect
17,"CN(C(=O)c1c(O)c2ccccc2n(C)c1=O)c1ncc[nH]1 [20:74, N-(2-imidazolyl)-N-methyl-1,2-dihydro-4-hydroxy-1-methyl-2-oxo-quinoline-3-carboxamide]",significant enhancing effect
18,"Cc1cc(N(C)C(=O)c2c(O)c3ccccc3n(C)c2=O)sn1 [20:78, N-methyl-N-(3-methyl-5-isothiazolyl)-1,2-dihydro-4-hydroxy-1-methyl-2-oxo-quinoline-3-carboxamide]",significant enhancing effect
19,"CN(C(=O)c1c(O)c2ccccc2n(C)c1=O)c1ccc(C(=O)O)cc1 [21:13, N-(4-carboxyphenyl)-N-methyl-1,2-dihydro-4-hydroxy-1-methyl-2-oxo-quinoline-3-carboxamide]",significant enhancing effect

# Same assay, conditions: Rattus norvegicus, po, 48 h; 10 mg/kg p.o., once daily day 10 to day 13, vs control; preliminary; read-out: Enhancement of the delayed hypersensitivity reaction assessed by the exudate vol.
row,SMILES,change in vivo at 10 mg/kg
1,"Cc1ccc(-n2c(=O)c(C(=O)Nc3ccccc3)c(O)c3ccccc32)cc1 [1:50, N-phenyl-1,2-dihydro-4-hydroxy-1-(4-methylphenyl)-2-oxo-quinoline-3-carboxamide]",46%
2,"Cc1cc(NC(=O)c2c(O)c3ccccc3n(C)c2=O)sn1 [7:28, N-(3-methyl-5-isothiazolyl)-1,2-dihydro-4-hydroxy-1-methyl-2-oxo-quinoline-3-carboxamide]",61%
3,"CN(C)c1ccc(NC(=O)c2c(O)c3cccc4c3n(c2=O)CCC4)cc1 [13:7, N-(4-dimethylaminophenyl)-1,2-dihydro-4-hydroxy-2-oxo-1,8-trimethylene-quinoline-3-carboxamide]",21%
4,"O=C(Nc1cnccn1)c1c(O)c2cccc3c2n(c1=O)CCC3 [14:17, N-pyrazinyl-1,2-dihydro-4-hydroxy-2-oxo-1,8-trimethylene-quinoline-3-carboxamide]",27%

# Test system: carrageenan-induced edema
# Test: carrageenan edema test in rats
# Format: in vivo, rat (female Sprague-Dawley)
# Conditions: Rattus norvegicus, po; 80 mg/kg p.o., 30 min before carrageenan; edema weight 3 h after, vs control; preliminary; read-out: Potentiation of the carrageenan edema, %
# Excerpt: Another test, in which the effect of a drug corresponds to the effects obtained in the tests mentioned above, and which can therefore also be used, is the well-established carrageenan edema test in rats (5). Comparative evaluation of compounds of the present invention in the three tests mentioned has shown that compounds which increase the extent of the delayed hypersensitivity reaction in the pertussis vaccine pleurisy test and in the adjuvant arthritis test also increase the extent of carrageenan-induced edema in the carrageenan edema test, thus providing a further tool for the determination of enhancement of cell-mediated immunity.
# This example illustrates the effect of the compounds of the general formula I in the carrageenan edema test in rats.
# A modification of a method described in (5) was used. Female Sprague-Dawleyrats weighing 110-120 g was used. At least 10 animals were used in each experimental group. Foot edema was induced by injecting carrageenan in 0.9% NaCl into the plantar surface of the right hind paw of the rats.
# The substances suspended in aqueous methocel solution 10 ml/kg were administered intragastrically 30 minutes before the injection of carrageenan. The control groups were given methocel solution 10 ml/kg.
# Three hours after carrageenan injection the animals were killed. The hind feet were cut off and weighed. The difference in weight of the injected right paw and the uninjected left paw was called edema weight.
# The effect of the substances was assessed by the edema weight expressed in percent after comparison with the control groups.
row,SMILES,change in vivo at 80 mg/kg
1,"O=C(Nc1ccccc1)c1c(O)c2ccccc2n(-c2ccccc2)c1=O [1:3, N-1-diphenyl-1,2-dihydro-4-hydroxy-2-oxo-quinoline-3-carboxamide]",41%
2,"CC(C)Cn1c(=O)c(C(=O)Nc2ccccc2)c(O)c2ccccc21 [1:15, N-phenyl-1,2-dihydro-4-hydroxy-1-isobutyl-2-oxo-quinoline-3-carboxamide]",30%
3,"Cn1c(=O)c(C(=O)Nc2ccccc2)c(O)c2ccc(Cl)cc21 [1:17, N-phenyl-7-chloro-1,2-dihydro-4-hydroxy-1-methyl-2-oxo-quinoline-3-carboxamide]",43%
4,"Cn1c(=O)c(C(=O)Nc2ccccc2)c(O)c2cc(Cl)ccc21 [1:18, N-phenyl-6-chloro-1,2-dihydro-4-hydroxy-1-methyl-2-oxo-quinoline-3-carboxamide]",36%
5,"CNc1ccc(NC(=O)c2c(O)c3ccccc3n(C)c2=O)cc1 [1:21, N-/4-methylaminophenyl/-1,2-dihydro-4-hydroxy-1-methyl-2-oxo-quinoline-3-carboxamide]",22%
6,"CCN(CC)c1ccc(NC(=O)c2c(O)c3ccccc3n(C)c2=O)cc1 [1:23, N-/4-diethylaminophenyl/-1,2-dihydro-4-hydroxy-1-methyl-2-oxo-quinoline-3-carboxamide]",29%
7,"CCNc1ccc(NC(=O)c2c(O)c3ccccc3n(C)c2=O)cc1 [1:45, N-(4-ethylaminophenyl)-1,2-dihydro-4-hydroxy-1-methyl-2-oxo-quinoline-3-carboxamide]",47%
8,"Cc1ccc2c(c1)c(O)c(C(=O)Nc1ccccc1)c(=O)n2C [1:46, N-phenyl-1,2-dihydro-1,6-dimethyl-4-hydroxy-2-oxo-quinoline-3-carboxamide]",32%
